Data on 34 compounds can be found in patent US7205306B2, “Substituted pyrazinones, pyridines and pyrimidines as corticotropin releasing factor ligands” (Bristol-Myers Squibb Pharma Company, priority 2001, dated 2007).

As for `CCC(COC)Nc1nc(C)nc(N2CCc3cc(OC)cc(Cl)c32)c1C=O` (stereo not shown) [Example 76, 4-(7-chloro-5-methoxy-2,3-dihydro-1H-indol-1-yl)-5-formyl-6-[1-(1-methoxymethyl)propylamino]-2-methylpyrimidine], the melting point is 150 to 153 °C.

`CCC(C)Nc1cc(N2CCc3cc(OC)cc(Cl)c32)nc(C)n1` (stereo not shown) [Example 310, 4-(7-chloro-5-methoxy-2,3-dihydro-1H-indol-1-yl)-6-(1-methylpropylamino)-2-methylpyrimidine] showed a melting point of 102 to 105 °C.

`CCC(CC)n1cc(Cl)nc(N2CCc3cc(Cl)cc(Cl)c32)c1=O` [Example 401, 5-Chloro-3-(5,7-dichloro-2,3-dihydro-1H-indol-1-yl)-1-(1-ethylpropyl)-2(1H)-pyrazinone] came in with a melting point of 168 to 170 °C.

`CCC(CCOC)n1cc(Cl)nc(N2CCc3cc(Cl)cc(Cl)c32)c1=O` (stereo not shown) [Example 410, 5-Chloro-3-(5,7-dichloro-2,3-dihydro-1H-indol-1-yl)-1-(1-ethyl-3-methoxypropyl)-2(1H)-pyrazinone]: the melting point is 95 to 97 °C.

The compound `CCC(COC)n1cc(Cl)nc(N2CCc3cc(OC)cc(Cl)c32)c1=O` (stereo not shown) [Example 413, 5-Chloro-3-(7-chloro-5-methoxy-2,3-dihydro-1H-indol-1-yl)-1-[1-(methoxymethyl)propyl]-2(1H)-pyrazinone] showed a melting point of 131 to 133 °C.

Take `CCC(CC)n1cc(C)nc(N2CCc3cc(Cl)cc(Cl)c32)c1=O` [Example 451, 3-(5,7-Dichloro-2,3-dihydro-1H-indol-1-yl)-1-(1-ethylpropyl)-5-methyl-2(1H)-pyrazinone]: the melting point was 137 to 139 °C.

Regarding `CCC(CC)n1cc(Br)nc(N2CCc3cc(Cl)cc(Cl)c32)c1=O` [Example 507, 5-Bromo-3-(5,7-dichloro-2,3-dihydro-1H-indol-1-yl)-1-(1-ethylpropyl)-2(1H)-pyrazinone], the melting point lay within 158 to 160 °C.

`CC[C@H](C1CC1)n1cc(Cl)nc(N2CCc3cc(Cl)cc(Cl)c32)c1=O` [Example 511, 5-Chloro-1-[(1R)-1-cyclopropylpropyl]-3-(5,7-dichloro-2,3-dihydro-1H-indol-1-yl)-2(1H)-pyrazinone] showed a melting point of 166 to 168 °C.

Turning to `CC[C@H](C1CC1)n1cc(Cl)nc(N2CCc3cc(Br)cc(Br)c32)c1=O` [Example 512, 5-Chloro-1-[(1R)-1-cyclopropylpropyl]-3-(5,7-dibromo-2,3-dihydro-1H-indol-1-yl)-2(1H)-pyrazinone], the melting point is 164 to 165 °C.

On to `CC[C@H](C1CC1)n1cc(Cl)nc(N2CCc3cc(OC)c(F)c(Cl)c32)c1=O` [Example 513, 5-Chloro-3-(7-chloro-6-fluoro-5-methoxy-2,3-dihydro-1H-indol-1-yl)-1-[(1R)-1-cyclopropylpropyl]-2(1H)-pyrazinone], for which the melting point is 128 to 130 °C.

`CC[C@@H](C1CC1)n1cc(Cl)nc(N2CCc3cc(Cl)cc(Cl)c32)c1=O` [Example 517, 5-Chloro-1-[(1S)-1-cyclopropylpropyl]-3-(5,7-dichloro-2,3-dihydro-1H-indol-1-yl)-2(1H)-pyrazinone] came in with a melting point of 157 to 159 °C.

As to `CC[C@@H](C1CC1)n1cc(Cl)nc(N2CCc3cc(Br)cc(Br)c32)c1=O` [Example 518, 5-Chloro-1-[(1S)-1-cyclopropylpropyl]-3-(5,7-dibromo-2,3-dihydro-1H-indol-1-yl)-2(1H)-pyrazinone], the melting point came to 165 °C.

`CC[C@@H](C1CC1)n1cc(Cl)nc(N2CCc3cc(OC)c(F)c(Cl)c32)c1=O` [Example 519, 5-Chloro-3-(7-chloro-6-fluoro-5-methoxy-2,3-dihydro-1H-indol-1-yl)-1-[(1S)-1-cyclopropylpropyl]-2(1H)-pyrazinone] had a melting point of 127 to 129 °C.

Consider `COC[C@@H](C)n1cc(Cl)nc(N2CCc3cc(Cl)cc(Cl)c32)c1=O` [Example 520, 5-Chloro-3-(5,7-dichloro-2,3-dihydro-1H-indol-1-yl)-1-[(1R)-2-methoxy-1-methylethyl]-2(1H)-pyrazinone], for which the melting point is 93 to 95 °C.

The compound `COC[C@@H](C)n1cc(Cl)nc(N2CCc3cc(Br)cc(Br)c32)c1=O` [Example 521, 5-Chloro-3-(5,7-dibromo-2,3-dihydro-1H-indol-1-yl)-1-[(1R)-2-methoxy-1-methylethyl]-2(1H)-pyrazinone] registered a melting point of 119 to 120 °C.

For `CCC(COC)n1cc(Cl)nc(N2CCc3cc(OC)c(F)c(Cl)c32)c1=O` (stereo not shown) [Example 522, 5-Chloro-3-(7-chloro-6-fluoro-5-methoxy-2,3-dihydro-1H-indol-1-yl)-1-[1-(methoxymethyl)propyl]-2(1H)-pyrazinone], the melting point was 140 to 142 °C.

For `CC[C@H](COC)n1cc(Cl)nc(N2CCc3cc(Cl)cc(Cl)c32)c1=O` [Example 524, 5-Chloro-3-(5,7-dichloro-2,3-dihydro-1H-indol-1-yl)-1-[(1R)-1-(methoxymethyl)propyl]-2(1H)-pyrazinone], the melting point was in the range of 143 to 146 °C.

`CC[C@H](COC)n1cc(Br)nc(N2CCc3cc(Cl)cc(Cl)c32)c1=O` [Example 527, 5-Bromo-3-(5,7-dichloro-2,3-dihydro-1H-indol-1-yl)-1-[(1R)-1-(methoxymethyl)propyl]-2(1H)-pyrazinone] yielded a melting point of 150 to 152 °C.

For the compound `CC[C@H](COC)n1cc(Br)nc(N2CCc3cc(OC)c(F)c(Cl)c32)c1=O` [Example 528, 5-Bromo-3-(7-chloro-6-fluoro-5-methoxy-2,3-dihydro-1H-indol-1-yl)-1-[(1R)-1-(methoxymethyl)propyl]-2(1H)-pyrazinone], the melting point lay in the range of 150 to 152 °C.

For `CC[C@@H](COC)n1cc(Cl)nc(N2CCc3cc(Cl)cc(Cl)c32)c1=O` [Example 530, 5-Chloro-3-(5,7-dichloro-2,3-dihydro-1H-indol-1-yl)-1-[(1S)-1-(methoxymethyl)propyl]-2(1H)-pyrazinone], the melting point was in the range of 143 to 146 °C.

Regarding `CC[C@@H](COC)n1cc(Br)nc(N2CCc3cc(Cl)cc(Cl)c32)c1=O` [Example 531, 5-Bromo-3-(5,7-dichloro-2,3-dihydro-1H-indol-1-yl)-1-[(1S)-1-(methoxymethyl)propyl]-2(1H)-pyrazinone], the melting point was in the range of 152 to 154 °C.

`CSCCn1cc(Cl)nc(N2CCc3cc(Cl)cc(Cl)c32)c1=O` [Example 535, 5-Chloro-3-(5,7-dichloro-2,3-dihydro-1H-indol-1-yl)-1-[2-(methylthio)ethyl]-2(1H)-pyrazinone] gave a melting point of 127 to 128 °C.

`CCC(C)n1cc(Cl)nc(N2CCc3cc(Br)cc(Cl)c32)c1=O` (stereo not shown) [Example 538, 3-(5-Bromo-7-chloro-2,3-dihydro-1H-indol-1-yl)-5-chloro-1-methylpropyl-2(1H)-pyrazinone] came in with a melting point of 150 °C.

In turn, `CCc1cn(C(CC)CC)c(=O)c(N2CCc3cc(Cl)cc(Cl)c32)n1` [Example 539, 3-(5,7-Dichloro-2,3-dihydro-1H-indol-1-yl)-5-ethyl-1-(1-ethylpropyl)-2(1H)-pyrazinone] yielded a melting point of 136 to 137 °C.

Turning to `CCC(CC)n1cc(Cl)nc(N2CCc3cc(Br)cc(Cl)c32)c1=O` [Example 540, 3-(5-Bromo-7-chloro-2,3-dihydro-1H-indol-1-yl)-5-chloro-1-(1-ethylpropyl)-2(1H)-pyrazinone], the melting point is 156 to 157 °C.

`CCC(CC)n1cc(C#N)nc(N2CCc3cc(Cl)cc(Cl)c32)c1=O` [Example 541, 6-(5,7-Dichloro-2,3-dihydro-1H-indol-1-yl)-4-(1-ethylpropyl)-4,5-dihydro-5-oxo-2-pyrazinecarbonitrile] returned a melting point of 197 to 199 °C.

`CC[C@H](C1CC1)n1cc(Cl)nc(N2CCc3cc(Br)cc(Cl)c32)c1=O` [Example 542, 3-(5-Bromo-7-chloro-2,3-dihydro-1H-indol-1-yl)-5-chloro-1-[(1R)-1-cyclopropylpropyl]-2(1H)-pyrazinone] returned a melting point of 154 to 156 °C.

As to `CC[C@@H](C1CC1)n1cc(Cl)nc(N2CCc3cc(Br)cc(Cl)c32)c1=O` [Example 543, 3-(5-Bromo-7-chloro-2,3-dihydro-1H-indol-1-yl)-5-chloro-1-[(1S)-1-cyclopropylpropyl]-2(1H)-pyrazinone], the melting point lay in the range of 126 to 127 °C.

In the case of `CC[C@H](COC)n1cc(Cl)nc(N2CCc3cc(OC)cc(C#N)c32)c1=O` [Example 546, 1-[6-Chloro-4-[(1R)-1-(methoxymethyl)propyl]-3,4-dihydro-3-oxopyrazinyl]-5-methoxy-2,3-dihydro-1H-indole-7-carbonitrile], the melting point fell in the range of 141 to 142 °C.

Consider `CC[C@H](COC)n1cc(Br)nc(N2CCc3cc(Br)cc(Cl)c32)c1=O` [Example 547, 5-Bromo-3-(5-bromo-7-chloro-2,3-dihydro-1H-indol-1-yl)-1-[(1R)-1-(methoxymethyl)propyl]-2(1H)-pyrazinone], for which the melting point worked out at 118 °C.

`CC[C@@H](COC)n1cc(Cl)nc(N2CCc3cc(Br)cc(Cl)c32)c1=O` [Example 548, 3-(5-Bromo-7-chloro-2,3-dihydro-1H-indol-1-yl)-5-chloro-1-[(1S)-1-(methoxymethyl)propyl]-2(1H)-pyrazinone]: the melting point fell in the range of 121 to 122 °C.

`CCC(CC)n1cc(Cl)nc(N2CCCc3cc(OC)cc(Br)c32)c1=O` [Example 550, 3-(8-Bromo-6-methoxy-1,2,3,4-tetrahydroquinoline)-5-chloro-1-(1-ethylpropyl)-2(1H)-pyrazinone] registered a melting point of 125 to 126 °C.

With `CC[C@H](C1CC1)n1cc(Cl)nc(N2CCCc3cc(OC)cc(Br)c32)c1=O` [Example 551, 3-(8-Bromo-6-methoxy-1,2,3,4-tetrahydroquinoline)-5-chloro-1-[(1R)-1-cyclopropylpropyl]-2(1H)-pyrazinone], the melting point is 127 to 129 °C.

Compound `CC[C@@H](C1CC1)n1cc(Cl)nc(N2CCCc3cc(OC)cc(Br)c32)c1=O` [Example 552, 3-(8-Bromo-6-methoxy-1,2,3,4-tetrahydroquinoline)-5-chloro-1-[(1S)-1-cyclopropylpropyl]-2(1H)-pyrazinone] returned a melting point of 118 to 119 °C.

The term melting point denotes the temperature of the solid-liquid transition.
